Assay results reported in article PMC7873226, “Molecular mechanism and structural basis of small-molecule modulation of the gating of acid-sensing ion channel 1” (Communications Biology, 2021).
Residue numbers refer to the chain shown, from its start. Read-outs that look alike come from different tables or passages of the source.

Columns and labels:
rat ASIC1a = molecular target: T1, rat ASIC1a (Rattus norvegicus, UniProt P55926); assay: Whole-cell patch clamp: inhibition of acid-induced current in CHO cells stably expressing rat ASIC1a; assay type: cell-based
T1 construct: expressed in transfected cells
T1 sequence (P55926 1-526): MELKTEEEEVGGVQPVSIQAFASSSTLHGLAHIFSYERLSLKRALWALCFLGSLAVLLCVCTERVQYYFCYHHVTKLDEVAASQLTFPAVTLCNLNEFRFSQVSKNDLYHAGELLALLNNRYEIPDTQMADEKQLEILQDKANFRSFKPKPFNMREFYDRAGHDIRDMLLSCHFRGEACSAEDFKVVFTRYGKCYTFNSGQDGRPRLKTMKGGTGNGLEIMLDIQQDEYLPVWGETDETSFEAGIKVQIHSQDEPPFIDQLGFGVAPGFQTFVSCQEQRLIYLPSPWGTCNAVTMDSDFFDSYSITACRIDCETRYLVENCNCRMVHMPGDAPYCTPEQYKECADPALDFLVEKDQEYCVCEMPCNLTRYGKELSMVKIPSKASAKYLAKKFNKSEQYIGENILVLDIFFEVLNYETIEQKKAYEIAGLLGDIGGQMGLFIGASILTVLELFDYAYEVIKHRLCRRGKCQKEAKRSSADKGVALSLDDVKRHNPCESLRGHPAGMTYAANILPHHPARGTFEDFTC
Protocol: (§1) Chinese Hamster Ovary (CHO) cells stably expressing rat ASIC1a were cultured in Ham’s F12, supplemented with 10% FBS, 1% penicillin–streptomycin and 500 µg/mL G418 and incubated at 37 °C with 5% CO2. Transient transfections of rASIC1a and cASIC1 wild-type or mutant channels in CHO cells were performed with Lipofectamine 3000 (Thermo Fisher Scientific) according to the manufacturer’s recommendations. The green fluorescent protein (GFP) cDNA (at 1/10 the amount of channel cDNA) was co-transfected with channel cDNA to aid the identification of transfected cells under the microscope in patch clamp experiments. All cDNAs were sequence verified.
Cells were freshly dissociated with CellStripper (Corning) and dispersed in a chamber on the stage of an inverted microscope. Upon formation of the whole-cell conformation, the cell was lifted from the bottom of the chamber and placed at the tip of a tubing perfusing an extracellular solution containing (in mM): 149 NaCl, 2 CaCl2, 4 KCl, 1 MgCl2, 5 glucose, 10 HEPES, pH 7.4, 310 mOsm/L. Extracellular solutions at more basic or acidic pHs were made by titrating the above pH 7.4 solution with NaOH or HCl (5 mM MES was added to solutions at pH 6.0 and lower). Pipette electrodes were filled with an intracellular solution containing (in mM): 135 KCl, 4 MgATP, 0.3 Na2GTP, 10 EGTA, and 20 HEPES, pH 7.2, 290 mOsm/L.
(§2) All recordings were performed at room temperature using an Axopatch 200B amplifier and pClamp 11 software (Molecular Devices). Currents were measured by whole-cell patch clamp, digitized at 10 kHz and lowpass filtered at 2 kHz. Series resistance was 75% compensated. Responses were elicited by rapid perfusion of acidic solutions using the SF-77B Fast-Step Perfusion device (Warner Instruments) for 40 ms once every 30 s (unless indicated otherwise) and recorded till steady state was reached. The holding potential was 0 mV unless indicated otherwise.
Baseline values (i.e., current amplitudes at the conditioning pH) were subtracted to obtain responses evoked by the test pH. Responses were normalized for each cell before averaging (see figure legends for more detail on normalization for each type of experiment). Concentration–response data were fitted to a logistic function of the form: R = (A1–A2)/(1 + (C/C0)^h)+A2, where R is the normalized response, C is either pH or compound concentration, C0 is the pH/concentration at which half-maximal response occurs (pH50 or IC50), h is the Hill coefficient, and A1 and A2 are constants. Kinetic parameters were obtained by fitting the data with either a single or double exponential function. Fitted data are shown as solid, dashed, or dotted curves.

rASIC1a Y340A = molecular target: T2, rASIC1a Y340A (Rattus norvegicus, UniProt P55926, Y340A); assay: Inhibition of pH 6.0-induced current of mutant channel Y340A; assay type: cell-based
T2 construct: expressed in transfected cells; host or cells: CHO cells, transient transfection (GFP cDNA co-transfected separately)
T2 sequence (P55926 1-526 Y340A): T1 sequence (P55926 1-526) with Y340A
Protocol: as §1
Cells were freshly dissociated with CellStripper (Corning) and dispersed in a chamber on the stage of an inverted microscope. […]
as §2, with “Series resistance was 75% compensated.” left out, “The holding potential was 0 mV unless indicated otherwise.” left out

[1] = CHO, pH 6, pH6.0, 10 nM, read-out: current inhibition, mean (source data Fig. 1e)
[2] = CHO, pH 6, pH6.0, 30 nM, read-out: current inhibition, mean (source data Fig. 1e)
[3] = CHO, pH 6, pH6.0, 100 nM, read-out: current inhibition, mean (source data Fig. 1e)
[4] = CHO, pH 6, pH6.0, 300 nM, read-out: current inhibition, mean (source data Fig. 1e)
[5] = CHO, pH 6, pH6.0, 1000 nM, read-out: current inhibition, mean (source data Fig. 1e)
[6] = CHO, pH 7.1, pH7.1, 3 nM, read-out: current inhibition, mean (source data Fig. 1e)
[7] = CHO, pH 7.1, pH7.1, 10 nM, read-out: current inhibition, mean (source data Fig. 1e)
[8] = CHO, pH 7.1, pH7.1, 30 nM, read-out: current inhibition, mean (source data Fig. 1e)
[9] = CHO, pH 7.1, pH7.1, 100 nM, read-out: current inhibition, mean (source data Fig. 1e)
[10] = test pH 6.0, holding pH 8.2, WT

`COc1ccc(Oc2ccc(-c3nc4cc(C(=N)N)ccc4[nH]3)cc2)cc1OC` [JNJ-799760] gave an inhibition at 0.01 µM (rat ASIC1a; [1]) of 23.5%, an inhibition at 0.03 µM (rat ASIC1a; [2]) of 45.7% and an inhibition at 0.1 µM (rat ASIC1a; [3]) of 66.3%. For the same compound, the inhibition at 0.3 µM (rat ASIC1a; [4]) was 78.3%, the inhibition at 1 µM (rat ASIC1a; [5]) was 80.7% and the inhibition at 0.003 µM (rat ASIC1a; [6]) was 45.1%. It also gave an inhibition at 0.01 µM (rat ASIC1a; [7]) of 74.6%, an inhibition at 0.03 µM (rat ASIC1a; [8]) of 94.4% and an inhibition at 0.1 µM (rat ASIC1a; [9]) of 99.1%. For the same compound, the max %inhibition (rat ASIC1a; test pH 6.0, holding pH 8.2) was 83.1 ± 1.2%, the IC50 (rat ASIC1a; [10]) was 24.9 ± 1.3 nM and the IC50 (rat ASIC1a; test pH 7.1, holding pH 8.2) was 3.6 ± 0.2 nM. It also gave a max %inhibition (rat ASIC1a; test pH 7.1, holding pH 8.2) of 100% and an IC50 (rASIC1a Y340A) of 260 ± 89.8 nM.
Work on `Cc1cc(N2CC(Oc3cc(F)c4c(N)n[nH]c4c3)C2)c(F)cn1` [JNJ-67869386] yielded an inhibition at 0.01 µM (rat ASIC1a; CHO, pH 5, pH5.0, 10 nM, read-out: current inhibition, mean (source data Fig. 1e)) of 8%, an inhibition at 0.03 µM (rat ASIC1a; CHO, pH 5, pH5.0, 30 nM, read-out: current inhibition, mean (source data Fig. 1e)) of 15.3% and an inhibition at 0.1 µM (rat ASIC1a; CHO, pH 5, pH5.0, 100 nM, read-out: current inhibition, mean (source data Fig. 1e)) of 20.5%. For the same compound, the inhibition at 0.3 µM (rat ASIC1a; CHO, pH 5, pH5.0, 300 nM, read-out: current inhibition, mean (source data Fig. 1e)) was 25.2%, the inhibition at 1 µM (rat ASIC1a; CHO, pH 5, pH5.0, 1000 nM, read-out: current inhibition, mean (source data Fig. 1e)) was 28.4% and the inhibition at 0.01 µM (rat ASIC1a; [1]) was 17.9%. It also gave an inhibition at 0.03 µM (rat ASIC1a; [2]) of 38.3%, an inhibition at 0.1 µM (rat ASIC1a; [3]) of 61.3% and an inhibition at 0.3 µM (rat ASIC1a; [4]) of 68.9%. For the same compound, the inhibition at 1 µM (rat ASIC1a; [5]) was 71.7%, the inhibition at 3 µM (rat ASIC1a; CHO, pH 6, pH6.0, 3000 nM, read-out: current inhibition, mean (source data Fig. 1e)) was 79.2% and the inhibition at 0.01 µM (rat ASIC1a; CHO, pH 6.8, 10 nM, 0 mV, read-out: inhibition of pH 6.8-induced current) was 75.6 ± 6.9%. It also gave an inhibition at 0.01 µM (rat ASIC1a; CHO, pH 6.8, 10 nM, −80 mV, read-out: inhibition of pH 6.8-induced current) of 78.2 ± 5%, an inhibition at 0.001 µM (rat ASIC1a; CHO, pH 6.8, pH6.8, 1 nM, read-out: current inhibition, mean (source data Fig. 1e)) of 15.3% and an inhibition at 0.003 µM (rat ASIC1a; CHO, pH 6.8, pH6.8, 3 nM, read-out: current inhibition, mean (source data Fig. 1e)) of 33.9%. For the same compound, the inhibition at 0.01 µM (rat ASIC1a; CHO, pH 6.8, pH6.8, 10 nM, read-out: current inhibition, mean (source data Fig. 1e)) was 62.8%, the inhibition at 0.03 µM (rat ASIC1a; CHO, pH 6.8, pH6.8, 30 nM, read-out: current inhibition, mean (source data Fig. 1e)) was 89.8% and the inhibition at 0.1 µM (rat ASIC1a; CHO, pH 6.8, pH6.8, 100 nM, read-out: current inhibition, mean (source data Fig. 1e)) was 97.6%. It also gave an inhibition at 0.003 µM (rat ASIC1a; [6]) of 42.7%, an inhibition at 0.01 µM (rat ASIC1a; [7]) of 78.1% and an inhibition at 0.03 µM (rat ASIC1a; [8]) of 96.5%. The inhibition at 0.1 µM (rat ASIC1a; [9]) was 99.8%, the IC50 (rat ASIC1a; test pH 5.0, holding pH 8.2) was 34.4 ± 7.6 nM and the max %inhibition (rat ASIC1a; test pH 5.0, holding pH 8.2) was 30.4 ± 1.8%. The max %inhibition (rat ASIC1a; test pH 6.0, holding pH 8.2) was 76.5 ± 2.2%, the IC50 (rat ASIC1a; [10]) was 28.9 ± 3.6 nM and the IC50 (rat ASIC1a; test pH 6.8, holding pH 8.2) was 5.5 ± 0.4 nM. It also gave a max %inhibition (rat ASIC1a; test pH 6.8, holding pH 8.2) of 100%, an IC50 (rat ASIC1a; test pH 7.1, holding pH 8.2) of 3.8 ± 0.2 nM and a max %inhibition (rat ASIC1a; test pH 7.1, holding pH 8.2) of 100%. It also gave an IC50 (rASIC1a Y340A) of 572 ± 177 nM.
